Like-named read-outs stand apart in the source and are kept apart here.
What was measured:
Format in all cases: cell-based
CCRF-CEM = assay: NCI60 five-dose screen; conditions: Homo sapiens
MOLT-4 = assay: NCI60 five-dose screen; conditions: Homo sapiens
RPMI-8226 = assay: NCI60 five-dose screen; conditions: Homo sapiens
HOP-92 = assay: NCI60 five-dose screen; conditions: Homo sapiens
NCI-H226 [1] = assay: NCI60 five-dose screen; conditions: Homo sapiens
NCI-H460 = assay: NCI60 five-dose screen; conditions: Homo sapiens
COLO 205 = assay: NCI60 five-dose screen; conditions: Homo sapiens
HCC-2998 = assay: NCI60 five-dose screen; conditions: Homo sapiens
HT29 [2] = assay: NCI60 five-dose screen; conditions: Homo sapiens, HT-29
SW-620 = assay: NCI60 five-dose screen; conditions: Homo sapiens
UACC-62 = assay: NCI60 five-dose screen; conditions: Homo sapiens
OVCAR-4 = assay: NCI60 five-dose screen; conditions: Homo sapiens
OVCAR-5 [3] = assay: NCI60 five-dose screen; conditions: Homo sapiens
786-0 = assay: NCI60 five-dose screen; conditions: Homo sapiens
A498 [4] = assay: NCI60 five-dose screen; conditions: Homo sapiens
CAKI-1 [5] = assay: NCI60 five-dose screen; conditions: Homo sapiens
RXF 393 [6] = assay: NCI60 five-dose screen; conditions: Homo sapiens
DU-145 [7] = assay: NCI60 five-dose screen; conditions: Homo sapiens
HS 578T = assay: NCI60 five-dose screen; conditions: Homo sapiens
BT-549 [8] = assay: NCI60 five-dose screen; conditions: Homo sapiens
CNS Cancer panel = assay: NCI60 five-dose screen, panel mean; conditions: Homo sapiens
Breast Cancer panel = assay: NCI60 five-dose screen, panel mean; conditions: Homo sapiens
HL-60(TB) = assay: NCI60 one-dose screen; conditions: Homo sapiens, HL-60, read-out: Growth percent
EKVX = assay: NCI60 one-dose screen; conditions: Homo sapiens, read-out: Growth percent
HOP-62 = assay: NCI60 one-dose screen; conditions: Homo sapiens
NCI-H226 [9] = assay: NCI60 one-dose screen; conditions: Homo sapiens
HCT-116 = assay: NCI60 one-dose screen; conditions: Homo sapiens
HCT-15 = assay: NCI60 one-dose screen; conditions: Homo sapiens
HT29 [10] = assay: NCI60 one-dose screen; conditions: Homo sapiens
U251 = assay: NCI60 one-dose screen; conditions: Homo sapiens
LOX IMVI = assay: NCI60 one-dose screen; conditions: Homo sapiens, read-out: Growth percent
OVCAR-3 = assay: NCI60 one-dose screen; conditions: Homo sapiens
OVCAR-5 [11] = assay: NCI60 one-dose screen; conditions: Homo sapiens
NCI/ADR-RES = assay: NCI60 one-dose screen; conditions: Homo sapiens, read-out: Growth percent
A498 [12] = assay: NCI60 one-dose screen; conditions: Homo sapiens
ACHN = assay: NCI60 one-dose screen; conditions: Homo sapiens, read-out: Growth percent
CAKI-1 [13] = assay: NCI60 one-dose screen; conditions: Homo sapiens
RXF 393 [14] = assay: NCI60 one-dose screen; conditions: Homo sapiens
UO-31 = assay: NCI60 one-dose screen; conditions: Homo sapiens
PC-3 = assay: NCI60 one-dose screen; conditions: Homo sapiens
DU-145 [15] = assay: NCI60 one-dose screen; conditions: Homo sapiens
MDA-MB-231/ATCC = assay: NCI60 one-dose screen; conditions: Homo sapiens
BT-549 [16] = assay: NCI60 one-dose screen; conditions: Homo sapiens
T-47D = assay: NCI60 one-dose screen; conditions: Homo sapiens, T47D, read-out: Growth percent
MDA-MB-468 = assay: NCI60 one-dose screen; conditions: Homo sapiens
[17] = tested on: 60 human tumor cell lines (NCI60); assay: NCI60 one-dose screen, overall mean; conditions: for activity at 10 µM: Homo sapiens, read-out: Mean growth percent

SMILES: CC[C@]12C=CCN3CC[C@@]4(c5ccc(OC)cc5N(C)[C@H]4[C@@](O)(C(=O)OC)[C@@H]1OC(=O)CCC[P+](C1CCCCC1)(C1CCCCC1)C1CCCCC1)[C@@H]32 [9d]
- GI50 (CCRF-CEM): 1690 nM
- GI50 (MOLT-4; MOLT-4): 2160 nM
- GI50 (RPMI-8226; RPMI-8226): 383 nM
- GI50 (HOP-92; HOP-92): 1010 nM
- GI50 (NCI-H226 [1]; NCI-H226): 4060 nM
- GI50 (NCI-H460; NCI-H460): 2770 nM
- GI50 (COLO 205; COLO 205): 430 nM
- GI50 (HCC-2998; HCC 2998): 1700 nM
- GI50 (HT29 [2]): 1880 nM
- GI50 (SW-620; SW-620): 2950 nM
- GI50 (UACC-62; UACC-62): 1410 nM
- GI50 (OVCAR-4; OVCAR-4): 2390 nM
- GI50 (OVCAR-5 [3]; OVCAR-5): 3190 nM
- GI50 (786-0; 786-0): 4450 nM
- GI50 (A498 [4]; A498): 12400 nM
- GI50 (CAKI-1 [5]; CAKI-1): 16400 nM
- GI50 (RXF 393 [6]; RXF 393): 1470 nM
- GI50 (DU-145 [7]; DU-145): 3750 nM
- GI50 (HS 578T; Hs-578T): 2450 nM
- GI50 (BT-549 [8]; BT-549): 2440 nM
- GI50 (CNS Cancer panel; read-out: Mean GI50): 2710 nM
- GI50 (Breast Cancer panel; read-out: Mean GI50): 1540 nM
- activity at 10 µM (HL-60(TB)): -37.1%
- activity at 10 µM (EKVX): 15.4%
- activity at 10 µM (HOP-62; HOP-62, read-out: Growth percent): 4.26%
- activity at 10 µM (NCI-H226 [9]; NCI-H226, read-out: Growth percent): -20%
- activity at 10 µM (HCT-116; HCT-116, read-out: Growth percent): 0.16%
- activity at 10 µM (HCT-15; HCT-15, read-out: Growth percent): 76.6%
- activity at 10 µM (HT29 [10]; HT-29, read-out: Growth percent): -56.7%
- activity at 10 µM (U251; U-251, read-out: Growth percent): -82.5%
- activity at 10 µM (LOX IMVI): -96%
- activity at 10 µM (OVCAR-3; OVCAR-3, read-out: Growth percent): -48.6%
- activity at 10 µM (OVCAR-5 [11]; OVCAR-5, read-out: Growth percent): 11%
- activity at 10 µM (NCI/ADR-RES): 100%
- activity at 10 µM (A498 [12]; A498, read-out: Growth percent): 21.8%
- activity at 10 µM (ACHN): 32%
- activity at 10 µM (CAKI-1 [13]; CAKI-1, read-out: Growth percent): -8.49%
- activity at 10 µM (RXF 393 [14]; RXF 393, read-out: Growth percent): -70.3%
- activity at 10 µM (UO-31; UO-31, read-out: Growth percent): 76.8%
- activity at 10 µM (PC-3; PC-3, read-out: Growth percent): -12%
- activity at 10 µM (DU-145 [15]; DU-145, read-out: Growth percent): 15.7%
- activity at 10 µM (MDA-MB-231/ATCC; MDA-MB-231, read-out: Growth percent): -90.8%
- activity at 10 µM (BT-549 [16]; BT-549, read-out: Growth percent): -97.4%
- activity at 10 µM (T-47D): -1.81%
- activity at 10 µM (MDA-MB-468; MDA-MB-468, read-out: Growth percent): -79.6%
- activity at 10 µM ([17]; 60 cell): -32.7%

SMILES: CCC12C=CCN3CCC4(c5ccc(OC)cc5N(C)C4C(O)(C(=O)OC)C1OC(=O)c1ccc(C[P+](c4ccccc4)(c4ccccc4)c4ccccc4)cc1)C32 (centres unmarked) [compound 12]
- GI50 (CCRF-CEM; Leukemia, read-out: GI50): 1300 nM
- GI50 (MOLT-4; MOLT-4, Leukemia, read-out: GI50): 1470 nM
- GI50 (RPMI-8226; RPMI-8226, Leukemia, read-out: GI50): 325 nM
- GI50 (HOP-92; HOP-92, Non-small Cell Lung Cancer, read-out: GI50): 404 nM
- GI50 (NCI-H226 [1]; NCI-H226, Non-small Cell Lung Cancer, read-out: GI50): 1540 nM
- GI50 (NCI-H460; NCI-H460, Non-small Cell Lung Cancer, read-out: GI50): 1660 nM
- GI50 (COLO 205; COLO 205, COLO 205, Colon Cancer, read-out: GI50): 313 nM
- GI50 (HCC-2998; HCC-2998, Colon Cancer, read-out: GI50): 991 nM
- GI50 (HT29 [2]; HT29, Colon Cancer, read-out: GI50): 541 nM
- GI50 (SW-620; SW-620, Colon Cancer, read-out: GI50): 1500 nM
- GI50 (UACC-62; UACC-62, Melanoma, read-out: GI50): 1030 nM
- GI50 (OVCAR-4; OVCAR-4, Ovarian Cancer, read-out: GI50): 1050 nM
- GI50 (OVCAR-5 [3]; OVCAR-5, Ovarian Cancer, read-out: GI50): 1990 nM
- GI50 (786-0; 786-0, Renal Cancer, read-out: GI50): 3580 nM
- GI50 (A498 [4]; A498, Renal Cancer, read-out: GI50): 16400 nM
- GI50 (CAKI-1 [5]; CAKI-1, Renal Cancer, read-out: GI50): 3260 nM
- GI50 (RXF 393 [6]; RXF 393, Renal Cancer, read-out: GI50): 1140 nM
- GI50 (DU-145 [7]; DU-145, Prostate Cancer, read-out: GI50): 1610 nM
- GI50 (HS 578T; HS 578T, Breast Cancer, read-out: GI50): 1270 nM
- GI50 (BT-549 [8]; BT-549, Breast Cancer, read-out: GI50): 538 nM
- GI50 (CNS Cancer panel; mean over CNS Cancer panel, read-out: GI50 Mean): 1320 nM
- GI50 (Breast Cancer panel; mean over Breast Cancer panel, read-out: GI50 Mean): 610 nM
- activity at 10 µM (HL-60(TB)): -69%
- activity at 10 µM (EKVX; 10 μM, one-dose): 28.7%
- activity at 10 µM (HOP-62; HOP-62, 10 μM, one-dose, read-out: Growth percent): -32.7%
- activity at 10 µM (NCI-H226 [9]; NCI-H226, 10 μM, one-dose, read-out: Growth percent): -23.1%
- activity at 10 µM (HCT-116; HCT-116, 10 μM, one-dose, read-out: Growth percent): -62.8%
- activity at 10 µM (HCT-15; HCT-15, 10 μM, one-dose, read-out: Growth percent): 90.1%
- activity at 10 µM (HT29 [10]; HT-29, HT29, 10 μM, one-dose, read-out: Growth percent): -39.4%
- activity at 10 µM (U251; U-251, U251, 10 μM, one-dose, read-out: Growth percent): -72.6%
- activity at 10 µM (LOX IMVI; 10 μM, one-dose): -39.8%
- activity at 10 µM (OVCAR-3; OVCAR-3, 10 μM, one-dose, read-out: Growth percent): -63.4%
- activity at 10 µM (OVCAR-5 [11]; OVCAR-5, 10 μM, one-dose, read-out: Growth percent): 2.52%
- activity at 10 µM (A498 [12]; A498, 10 μM, one-dose, read-out: Growth percent): 70.2%
- activity at 10 µM (ACHN; 10 μM, one-dose): 73.7%
- activity at 10 µM (CAKI-1 [13]; CAKI-1, 10 μM, one-dose, read-out: Growth percent): -7.04%
- activity at 10 µM (RXF 393 [14]; RXF 393, 10 μM, one-dose, read-out: Growth percent): -61.8%
- activity at 10 µM (UO-31; UO-31, 10 μM, one-dose, read-out: Growth percent): 88.3%
- activity at 10 µM (PC-3; PC-3, 10 μM, one-dose, read-out: Growth percent): -21.9%
- activity at 10 µM (DU-145 [15]; DU-145, 10 μM, one-dose, read-out: Growth percent): 16.9%
- activity at 10 µM (MDA-MB-231/ATCC; MDA-MB-231/ATCC, 10 μM, one-dose, read-out: Growth percent): -91.5%
- activity at 10 µM (BT-549 [16]; BT-549, 10 μM, one-dose, read-out: Growth percent): -89.1%
- activity at 10 µM (T-47D; T-47D, 10 μM, one-dose): 7.1%
- activity at 10 µM (MDA-MB-468; MDA-MB-468, 10 μM, one-dose, read-out: Growth percent): -49.2%
- activity at 10 µM ([17]; mean over 60 cell lines, 10 μM, one-dose): -37.1%
- cytotoxicity (in words) ([17]; one-dose, 10 µM): moderate cytotoxicity

— publication PMC12028158, “Synthesis and In Vitro Evaluation of the Anticancer Effect of Novel Phosphonium Vindoline Derivatives” (International Journal of Molecular Sciences, 2025)
